The record followed here is patent US8431593B2, “Heteroaryl amide derivatives” (H. Lundbeck A/S, priority 2006, dated 2013).

The first assay deals with T1, P2X7 receptor (Homo sapiens, UniProt Q99572).
T1 construct: host or cells: SH-SY5Y
T1 sequence (Q99572 1-595): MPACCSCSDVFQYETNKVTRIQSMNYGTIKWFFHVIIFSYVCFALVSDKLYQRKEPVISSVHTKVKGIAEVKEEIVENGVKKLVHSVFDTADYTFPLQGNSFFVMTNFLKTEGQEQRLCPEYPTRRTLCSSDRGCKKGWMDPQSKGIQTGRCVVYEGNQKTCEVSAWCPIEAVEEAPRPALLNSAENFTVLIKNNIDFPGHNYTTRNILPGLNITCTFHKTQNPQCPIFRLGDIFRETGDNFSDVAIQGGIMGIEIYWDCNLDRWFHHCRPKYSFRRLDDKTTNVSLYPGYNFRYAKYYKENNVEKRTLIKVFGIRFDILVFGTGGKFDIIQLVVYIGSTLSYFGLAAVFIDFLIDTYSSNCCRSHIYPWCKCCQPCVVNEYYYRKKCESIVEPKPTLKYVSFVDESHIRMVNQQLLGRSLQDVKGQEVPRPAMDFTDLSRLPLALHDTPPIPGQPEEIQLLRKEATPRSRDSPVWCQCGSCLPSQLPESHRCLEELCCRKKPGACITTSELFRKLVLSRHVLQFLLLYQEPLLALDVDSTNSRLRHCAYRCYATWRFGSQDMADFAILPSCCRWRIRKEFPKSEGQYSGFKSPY
As to the kind of experiment: P2X7 calcium mobilization assay, high throughput, antagonist activity (Example 4A). Format: cell-based.
Settings: not given
The essentials: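 Dye-loaded cells (100,000/well, seeded previous day) are pre-exposed to compound for an hour at room temperature. Fluorescence maxima are baseline-corrected against no-agonist wells and compared with the averaged agonist-well maximum.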
(In general: Calcium assays in cells follow changes in intracellular calcium, usually with a dye or a luminescent sensor.)
For orientation: IC50 means the concentration needed to halve the response being measured. For the compound `CC1(C)CCCN(C(=O)c2cn3c(C(=O)NC[C@@H]4CC[C@H]5C[C@@H]4C5(C)C)cccc3n2)C1` [Compound 491, N-{[(1S,2R,5S)-6,6-dimethylbicyclo [3.1.1]hept-2-yl]methyl}-2-[(3,3-dimethyl-piperidin-1-yl)carbonyl]imidazo [1,2-a]pyridine-5-carboxamide], the IC50 was under 2 µM.

Still in this assay, the particulars now being: 50% decrease in the fluorescence response of cells exposed to 80 μM of 2′(3′)-O-(4-benzoyl-benzoyl)adenosine 5′-triphosphate; Example 4A; read-out: IC50.
On to `COCCN(C(=O)c1cn2c(C(=O)NCC34CC5CC(CC(C5)C3)C4)cccc2n1)C1CCNCC1(C)C` (centres unmarked) [Compound 623, 5-N-(adamantan-1-ylmethyl)-2-N-(3,3-dimethylpiperidin-4-yl)-2-N-(2-methoxyethyl)imidazo [1,2-a]pyridine-2,5-dicarboxamide], for which the IC50 was under 2 µM.

On to `CC(C)CC(CNC(=O)c1cccc2nc(CC(=O)N3CCCC(N(C)C)C3)cn12)c1ccc(Cl)cc1` (centres unmarked) [Compound 792, N-[2-(4-chlorophenyl)-4-methylpentyl]-2-{2-[3-(dimethylamino)piperidin-1-yl]-2-oxoethyl} imidazo[1,2-a] pyridine-5-carboxamide], for which the IC50 is under 2 µM.

Regarding `CC(C)(C)NCCOC(=O)c1cn2c(C(=O)NCC34CC5CC(CC(C5)C3)C4)cccc2n1` [Compound 696, 2-(tert-butylamino)ethyl 5-[(adamantan-1-ylmethyl)carbamoyl] imidazo[1,2-a] pyridine-2-carboxylate], the IC50 is under 2 µM.

Take `O=C(NCC12CC3CC(CC(C3)C1)C2)c1cccc2nc(C(Cc3cccnc3)C(=O)O)cn12` (centres unmarked) [Compound 730, 2-{5-[(adamantan-1-ylmethyl)carbamoyl]imidazo[1,2-a]pyridin-2-yl}-3-pyridin-3-ylpropanoic acid]: the IC50 is under 2 µM.

Consider `O=C(NCc1ccncc1)c1cn2c(C(=O)NCC34CC5CC(CC(C5)C3)C4)cccc2n1` [Compound 661, 5-N-(adamantan-1-ylmethyl)-2-N-(pyridin-4-ylmethyl)imidazo [1,2-a]pyridine-2,5-dicarboxamide], for which the half-inhibitory concentration (IC50) is under 2 µM.

As to `CCNC(=O)CC1(c2cn3c(C(=O)NCC45CC6CC(CC(C6)C4)C5)cccc3n2)CC(=O)N(CC)C1=O` (centres unmarked) [Compound 808, N-(adamantan-1-ylmethyl)-2-{1-ethyl-3-[2-(ethylamino)-2-oxoethyl]-2,5-dioxopyrrolidin-3-yl}imidazo[1,2-a]pyridine-5-carboxamide], the IC50 is under 2 µM.

Take `O=C(NCC12CC3CC(CC(C3)C1)C2)c1cccc2nc(C(Cc3ccncc3)C(=O)O)cn12` (centres unmarked) [Compound 734, 2-{5-[(adamantan-1-ylmethyl)carbamoyl]imidazo[1,2-a]pyridin-2-yl}-3-pyridia-4-ylpropanoic acid]: the IC50 was under 2 µM.

The assay is the same for the next values; noted with them: 50% decrease in the fluorescence response of cells exposed to 80 μM of 2′(3′)-O-(4-benzoyl-benzoyl)adenosine 5′-triphosphate; determined as in Example 4A; read-out: IC50.
On to `COc1ccc(C2(CNC(=O)c3cccc4nc(CC(Cc5ccccc5)C(=O)O)cn34)CCCCC2)cc1` (centres unmarked) [Compound 1014, 2-benzyl-3-[5-({[1-(4-methoxyphenyl)cyclohexyl]methyl}carbamoyl)imidazo[1,2-a]pyridin-2-yl]propanoic acid], for which the IC50 was under 2 µM.

With `CCCC(C(=O)OCC)c1cn2c(C(=O)NCC34CC5CC(CC(C5)C3)C4)cccc2n1` (centres unmarked) [Compound 905, ethyl 2-{5-[(adamantan-1-ylmethyl)carbamoyl]imidazo[1,2-a]pyridin-2-yl}pentanoate], the IC50 was under 2 µM.

As for `O=C(NCC12CC3CC(CC(C3)C1)C2)c1cccc2nc(CSc3nnn[nH]3)cn12` [Compound 853, N-(adamantan-1-ylmethyl)-2-[(1H-tetrazol-5-ylthio)methyl] imidazo [1,2-a]pyridine-5-carboxamide], the IC50 is under 2 µM.

As to `CCOC(=O)C(Cc1ccccn1)c1cn2c(C(=O)NCC(CC(C)C)c3ccc(Cl)cc3)cccc2n1` (centres unmarked) [Compound 930, ethyl 2-(5-{[2-(4-chlorophenyl)-4-methylpentyl]carbamoyl}imidazo[1,2-a]pyridin-2-yl)-3-pyridin-2-ylpropanoate], the half-inhibitory concentration (IC50) is under 2 µM.

As to `O=C(NCC12CC3CC(CC(C3)C1)C2)c1cccc2nc(Cn3nnnc3-c3ccncc3)cn12` [Compound 818, N-(adamantan-1-ylmethyl)-2-[(5-pyridin-4-yl-1H-tetrazol-1-yl)methyl]imidazo [1,2-a]pyridine-5-carboxamide], the IC50 was under 2 µM.

For the compound `CC(C)N1CCN(C(=O)Cc2cn3c(C(=O)NCC4(c5ccc(C(F)(F)F)cc5)CCCCC4)cccc3n2)CC1` [Compound 885, 2-[2-(4-isopropylpiperazin-1-yl)-2-oxoethyl]-N-({1-[4-(trifluoromethyl)phenyl]cyclohexyl}methyl) imidazo[1,2-a] pyridine-5-carboxamide], the IC50 was under 2 µM.

The assay is the same for the next values; noted with them: P2X7 calcium mobilization, Example 4A; 50% decrease in the fluorescence response of cells exposed to 80 μM of (2′(3′)-O-(4-benzoyl-benzoyl)adenosine 5′-triphosephate); read-out: IC50.
With `Cc1ccc(C2(CNC(=O)c3cccc4nc(CN5CCCC5)cn34)CCCCC2)cc1` [Compound 1049, N-{[1-(4-methylphenyl)cyclohexyl]methyl}-2-(pyrrolidin-1-ylmethyl) imidazo[1,2-a]pyridine-5-carboxamide], the IC50 was under 2 µM.

Take `CCOC(=O)Cc1cn2cc(C(=O)NCC34CC5CC(CC(C5)C3)C4)ccc2n1` [Compound 1063, ethyl {6-[(adamantan-1-ylmethyl)carbamoyl]imidazo[1,2-a]pyridin-2-yl} acetate]: the IC50 was under 2 µM.

The same assay, now with this note: SH-SY5Y cells; 50% decrease in fluorescence response to 80 μM BzATP; read-out: IC50.
Turning to `O=C(NCC12CC3CC(CC(C3)C1)C2)c1cccc2nc(Cn3cncc3CO)cn12` [Compound 200, N-(adamantan-1-ylmethyl)-2-{[5-(hydroxymethyl)-1H-imidazol-1-yl]methyl}imidazo[1,2-a]pyridine-5-carboxamide], the IC50 is under 2 µM.

As for `NC1CCCN(Cc2cn3c(C(=O)NCC45CC6CC(CC(C6)C4)C5)cccc3n2)C1` (centres unmarked) [Compound 121, N-(adamantan-1-ylmethyl)-2-[(3-aminopiperidin-1-yl)methyl]imidazo[1,2-a]pyridine-5-carboxamide], the 50% inhibitory concentration (IC50) is under 2 µM.

Turning to `O=C(Cc1cn2c(C(=O)NCC34CC5CC(CC(C5)C3)C4)cccc2n1)NCC1CC1` [Compound 147, N-(adamantan-1-ylmethyl)-2-{2-[(cyclopropylmeth-yl)amino]-2-oxoethyl}imidazo[1,2-a]pyridine-5-carboxamide], the half-maximal inhibitory concentration (IC50) was under 2 µM.

With `O=C(NCC12CC3CC(CC(C3)C1)C2)c1cccc2nc(CCNC3CCNCC3)cn12` [Compound 119, 2-[2-(piperidin-4-ylamino)-ethyl]-imidazo[1,2-a]pyridine-5-carboxylic acid (adamantan-1-ylmethyl)-amide], the IC50 was under 2 µM.

Staying with this assay, now noted: fluorescence response of cells exposed to 80 μM 2′(3′)-O-(4-benzoyl-benzoyl)adenosine 5′-triphosphate; Example 4A; read-out: IC50.
On to `N[C@@H]1CCN(Cc2cn3c(C(=O)NCCC45CC6CC(CC(C6)C4)C5)cccc3n2)C1` [Compound 248, N-(2-adamantan-1-ylethyl)-2-{[(3R)-3-aminopyrrolidin-1-yl]methyl}imidazo[1,2-a]pyridine-5-carboxamide], for which the IC50 is under 2 µM.

As for `CCCCN(CCO)C(=O)c1cn2c(NC(=O)CC34CC5CC(CC(C5)C3)C4)cccc2n1` [Compound 412, 5-[(adamantan-l-ylacetyl)amino]-N-butyl-N-(2-hydroxyethyl)imidazo [1,2-a]pyridine-2-carboxamide], the IC50 is under 2 µM.

With `CCOC(=O)CN(CC)C(=O)c1cn2c(NC(=O)CC34CC5CC(CC(C5)C3)C4)cccc2n1` [Compound 375, ethyl N-({5-[(adamantan-1-ylacetyl)amino]imidazo [1,2-a]pyridin-2-yl}carbonyl)-N-ethylglycinate], the IC50 was under 2 µM.
